The source of these data is ChEMBL document CHEMBL1148993, “UV-mediated genotoxicity of furanoquinoline and of certain tryptophan-derived alkaloids” (J Nat Prod, 1983).

Data set [1] deals with Escherichia coli. In words: Phototoxicity against Escherichia coli at 16.7 ug/disk in dark. In kind it is functional. The note with it: light or radiation study, read-out: IZ.
The subject of data set [2] is Staphylococcus aureus. Description: Phototoxicity against Staphylococcus aureus at 16.7 ug/disk after irradiation with W/m'2 UV light. In kind it is functional. The note with it: light or radiation study, read-out: IZ.
Data set [3] concerns CHO. In words: Genotoxicity in CHO cells assessed as chromosomal aberrations at 10.4 ppm after 60 mins in dark followed by 5 W/m'2 UV irradiation for 30 mins. The note with it: chinese hamster, 0.5 h. In kind it is toxicity, cell-based, Cricetulus griseus.
In data set [4] the test system is Enterococcus faecalis. Description: Phototoxicity against Streptococcus faecalis at 16.7 ug/disk after irradiation with W/m'2 UV light. In kind it is functional. To be noted: light or radiation study, read-out: IZ.
Data set [5] concerns CHO. Description: Genotoxicity in CHO cells assessed as chromosomal aberrations at 41.7 ppm after 60 mins in dark followed by 5 W/m'2 UV irradiation for 30 mins. In kind it is toxicity, cell-based, Cricetulus griseus. The note with it: chinese hamster, 0.5 h.
The subject of data set [6] is Bacillus subtilis. Description: Phototoxicity against Bacillus subtilis at 16.7 ug/disk after irradiation with W/m'2 UV light. Format: functional. To be noted: light or radiation study, read-out: IZ.
The subject of data set [7] is Staphylococcus aureus. Description: Phototoxicity against Staphylococcus aureus at 16.7 ug/disk in dark. Format: functional. The note with it: light or radiation study, read-out: IZ.
The subject of data set [8] is Pseudomonas aeruginosa. In words: Phototoxicity against Pseudomonas aeruginosa at 16.7 ug/disk in dark. Format: functional. To be noted: light or radiation study, read-out: IZ.
In data set [9] the test system is CHO. Description: Genotoxicity in CHO cells assessed as chromosomal aberrations at 83.5 ppm after 60 mins in dark followed by 5 W/m'2 UV irradiation for 30 mins. In kind it is toxicity, cell-based, Cricetulus griseus. The note with it: chinese hamster, 0.5 h.
The test system of data set [10] is Saccharomyces cerevisiae. Description: Phototoxicity against Saccharomyces cerevisiae at 16.7 ug/disk in dark. The note with it: light or radiation study, read-out: IZ. Format: functional.
In data set [11] the test system is Escherichia coli. Description: Phototoxicity against Escherichia coli at 16.7 ug/disk after irradiation with W/m'2 UV light. In kind it is functional. The note with it: light or radiation study, read-out: IZ.
Data set [12] deals with Pseudomonas aeruginosa. Description: Phototoxicity against Pseudomonas aeruginosa at 16.7 ug/disk after irradiation with W/m'2 UV light. In kind it is functional. To be noted: light or radiation study, read-out: IZ.
For data set [13], the system named is CHO. In words: Genotoxicity in CHO cells assessed as chromosomal aberrations at 20.8 ppm after 60 mins in dark followed by 5 W/m'2 UV irradiation for 30 mins. In kind it is toxicity, cell-based, Cricetulus griseus. The note with it: chinese hamster, 0.5 h.
Data set [14] has as its system CHO. Description: Genotoxicity in CHO cells assessed as chromosomal aberrations at 83.5 ppm after 90 mins in dark. To be noted: chinese hamster, 1.5 h. In kind it is toxicity, cell-based, Cricetulus griseus.
The test system of data set [15] is Saccharomyces cerevisiae. In words: Phototoxicity against Saccharomyces cerevisiae at 16.7 ug/disk after irradiation with W/m'2 UV light. To be noted: light or radiation study, read-out: IZ. In kind it is functional.
In data set [16] the test system is Pseudomonas fluorescens. In words: Phototoxicity against Pseudomonas fluorescens at 16.7 ug/disk in dark. The note with it: light or radiation study, read-out: IZ. Format: functional.
Data set [17] has as its system Candida albicans. In words: Phototoxicity against Candida albicans at 16.7 ug/disk after irradiation with W/m'2 UV light. The note with it: light or radiation study, read-out: IZ. Format: functional.
In data set [18] the test system is CHO. In words: Genotoxicity in CHO cells assessed as chromosomal aberrations at 5.2 ppm after 60 mins in dark followed by 5 W/m'2 UV irradiation for 30 mins. Format: toxicity, cell-based, Cricetulus griseus. To be noted: chinese hamster, 0.5 h.
For data set [19], the system named is Bacillus subtilis. Description: Phototoxicity against Bacillus subtilis at 16.7 ug/disk in dark. In kind it is functional. The note with it: light or radiation study, read-out: IZ.
For data set [20], the system named is Enterococcus faecalis. Description: Phototoxicity against Streptococcus faecalis at 16.7 ug/disk in dark. In kind it is functional. To be noted: light or radiation study, read-out: IZ.
The subject of data set [21] is CHO. In words: Genotoxicity in CHO cells assessed as mitotic inhibition at 2.6 ppm after 60 mins in dark followed by 5 W/m'2 UV irradiation for 30 mins. Format: toxicity, cell-based, Cricetulus griseus. To be noted: chinese hamster, 0.5 h.
Data set [22] relates to Pseudomonas fluorescens. Description: Phototoxicity against Pseudomonas fluorescens at 16.7 ug/disk after irradiation with W/m'2 UV light. Format: functional. To be noted: light or radiation study, read-out: IZ.
Data set [23] relates to Candida albicans. Description: Phototoxicity against Candida albicans at 16.7 ug/disk in dark. Format: functional. To be noted: light or radiation study, read-out: IZ.

Take `COc1cc2nccc3c4ccccc4n(c1=O)c23` [5-METHOXYCANTHINONE]: the zone of inhibition at 16.7 µg/disc was 0 mm with Escherichia coli [1]; 8 mm in the data set on Staphylococcus aureus [2]; 0 mm with Enterococcus faecalis [4]; 8 mm with Bacillus subtilis [6]; 0 mm with Staphylococcus aureus [7]; 0 mm in the data set with Pseudomonas aeruginosa [8]. For the same molecule, the zone of inhibition at 16.7 µg/disc in the data set with Saccharomyces cerevisiae [10] turned out to be 0 mm; in the data set on Escherichia coli [11], 7 mm; in the data set on Pseudomonas aeruginosa [12], 0 mm; with Saccharomyces cerevisiae [15], 6 mm; in the data set on Pseudomonas fluorescens [16], 0 mm; in the data set with Candida albicans [17], 12 mm. Moreover, the zone of inhibition at 16.7 µg/disc in the data set with Bacillus subtilis [19] worked out at 8 mm; in the data set with Enterococcus faecalis [20], 0 mm; with Pseudomonas fluorescens [22], 0 mm; with Candida albicans [23], 0 mm. Moreover, the Activity result was “Toxic” with CHO [3]; “Toxic” in the data set on CHO [5]; “Toxic” in the data set on CHO [9]; “Toxic” with CHO [13]; 0% in the data set with CHO [14]; “Toxic” in the data set with CHO [18]. Also, in the data set on CHO [21], the outcome was Active.
